According to publication PMC10923054, “Antiplasmodial peptaibols act through membrane directed mechanisms” (Cell Chemical Biology, 2024):
Square brackets hold non-standard residues; d marks the D form. Peptide text beside a SMILES is read from it. Leu(ol) = CC(C)C[C@H](N)CO; dIva = CC[C@@](C)(N)C(=O)O; Aib = CC(C)(N)C(=O)O

Assays:
red blood cell (RBC) = assay: Percent hemolysis determination; assay type: cell-based, human; on Hemolytic Potential: key: -: A '–' indicates a negative finding; a single '+' indicates a positive finding; a double '++' indicates a strong positive finding
Procedure: Hemolysis assay performed as outlined in Duvall et al. with some modifications.[63] Whole blood was first washed and resuspended in PBS to isolate RBCs. Compound was then added in serial dilutions to PBS with 1% hematocrit, with vehicle or 0.01% saponin used as controls. Plates were incubated for 1 h at 37°C then centrifuged for 10 min at 900 x g. Supernatant was then transferred to a clear plate and absorbance was read at 550 nm. Extended incubation with compound (up to 3 days) was performed during assay optimization, with no changes noted in percent hemolysis.

[1] = Electrophysiology: reconstitution into planar lipid bilayers; on Channel Induction: key: -: A '–' indicates a negative finding; a single '+' indicates a positive finding; a double '++' indicates a strong positive finding
Procedure: Ion channel formation by peptaibols was evaluated with reconstitution into planar lipid bilayers using the Orbit Mini workstation (Nanion). Bilayers were formed from a 5 mg/ml decane solution of 1,2-diphytanoyl-sn-glycero-3-phosphocholine (DPhPc, Avanti Polar Lipids) across 100 μm diameter orifices in the MECA 4 recording chip with 4 microcavities. The bilayers were bathed with saline (in mM: 70 NaCl, 70 KCl, 2.5 MgCl2, 2 CaCl2, 10 HEPES, 10 MES, 10 glucose, pH 7.0) at both faces, with resistances of up to 500 GΩ before channel incorporation. Peptaibols were added from a 10 mM DMSO stock to the cis chamber at a final 1 μM concentration; spontaneous incorporation into the bilayer typically occurred within 10–15 min. Recordings were acquired at 20 kHz and filtered at 1.25 kHz.

[2] = tested on: digestive vacuole of functionally isolated 3D7 trophozoites; assay: FITC-dextran measurements of DV pH and membrane integrity; on DV Alkylization: key: -: A '–' indicates a negative finding; a single '+' indicates a positive finding; a double '++' indicates a strong positive finding; assay type: cell-based, P. falciparum
Procedure: Preloading of 3D7 parasites with FITC-dextran was done as outlined in Saliba et al.[68] In summary, 2.25 mL of pre-warmed lysis buffer (5 mM HEPES, 11 mM glucose, 2 mM MgCl2, 2 mM ATP, and 110 μM FITC-dextran, pH 7.4) was added to 1 mL of packed RBCs and incubated at 30°C for 10 min. After, 2.25 mL of resealing buffer (280 mM NaCl, 40 mM KCl, 11 mM glucose, and 1 mM HEPES, pH 7.4) was added and cells were pelleted at 1,200 x g for 5 min then washed 3 x in RPMI. FITC-dextran loaded RBCs were then resuspended with 1 mL of synchronous trophozoite stage parasites (10–20%) parasitemia, at 4% hematocrit. Cultures were maintained in 50 mL for a minimum of 2 life cycles, until parasitemia reached >15%.
For assay use, trophozoite stage parasites were functionally isolated as described by van Schalkwyk et al. and Kirk et al. with some modifications.[69]^,[70] Parasites were resuspended in warm media with 0.05% saponin then centrifuged immediately at 2,060 x g for 10 min. Cells were washed in RPMI media 3 x then resuspended in HEPES buffered saline (100 mM KCl, 30 mM NaCl, 2 mM MgCl2, and 5 mM HEPES, pH 7.3) at 5 x 10^6 cells/mL. […] Samples were collected at 0.5, 1, and 2 h for flow cytometry using a CytoFLEX S (Beckman Coulter, Brea, CA), excitation 488 nm, emissions 530 and 585 nm. Gating was performed in FlowJo Version 10 using FITC-dextran loaded and unloaded controls. The ratio (Rgy) of the fluorescent intensity values was then graphed using Graph Pad Prism Version 9. For microscopic analysis, samples were collected after 2 h of treatment and imaged on a Leica TCS SP5 II confocal microscope (Leica Microsystems, Wetzlar, DE.) at excitation 488, emission 520 nm with a 30 nm bandpass filter, then processed with LAS-X software. Significance determined using a one-way ANOVA multiple comparisons test in GraphPad Prism Version 9.0.

[3] = tested on: P. berghei liver stage parasites in HepG2 cells; assay: High content imaging P. berghei liver stage assay (luciferase 48 HPI, MSP1/AMA1 72 HPI, HepG2 area); assay type: cell-based
Procedure: HepG2 cells infected with luciferase-expressing P. berghei sporozoites were seeded onto compound-loaded 384-well plates 2 hours after sporozoite addition. A live luciferase readout at 48 HPI[62] quantifies compound activity against parasite biomass, while HCI of MSP1 and AMA1 expression at 72 HPI quantifies effects on liver stage maturation and hepatic merozoite formation. Compound effects on hepatocytes are assessed based on HepG2 area occupied in the 72 HPI HCI assay. All data are normalized to in-plate DMSO controls.

[4] = tested on: HZ NPDG-I-resistant Dd2 clones (pfmdr1 mutants); assay type: cell-based, P. falciparum; conditions: Figure 7A summary; further: key: -: A '–' indicates a negative finding; a single '+' indicates a positive finding; a double '++' indicates a strong positive finding
Procedure: Screening of HZ NPDG-I resistant clones was performed at 1% parasitemia, 0.2% hematocrit with flow cytometry in V-shaped 96-well plates. Briefly, compounds were subjected to a 3-fold serial dilution with the highest concentration set at 4 μM or 8 μM. Eleven dilution points were included in addition to no-drug controls. Three technical replicates were set up for each compound at each dilution point. The Dd2-B2 parent line, or the clonal line 1B2, 2B3, 3A3, or 1E2 were added at 0.4% hematocrit and 1% parasitemia to the diluted compounds at a 1:1 ratio. The plate was incubated at 37°C for 72 h in a chamber filled with a hypoxic gas mixture (3% oxygen, 5% carbon dioxide, and 92% nitrogen). After incubation, a blood pellet was formed at the bottom of each well of the 96-well plate. Supernatant was removed without disturbing the pellet, and 20 μl of SYTO 61(1:10,000 dilution; Thermo Fisher Scientific, Cat No. S11343) in PBS was added to each well and incubated for 15 mins at room temperature. The cells in each well were then diluted with 180 μl of PBS and subjected to flow cytometry for parasitemia determination using the HTS (High-Throughput Sampler) of BD FACSCanto II (BD Biosciences, NJ). Flow cytometry data was analyzed using FlowJo Version 10.4.0. Dose response curves were generated and IC50 values obtained with GraphPad Prism Version 9.1.1.
A clone of the Dd2 strain (Dd2-B2) of P. falciparum was used for in vitro evolution of resistance against harzianin NPDG I. Three flasks of 1.2 x 10^8 parasites were continuously exposed to a stepwise-increasing concentration of the compound over ∼3 months starting from 20 nM up to a final concentration of 100 nM. Once a stable rightward shift in 72 h IC50 was observed, cultures were subjected to limiting dilution to obtained harzianin-resistant clones. Each clone was expanded, phenotyped to confirm resistance, and submitted for whole genome sequencing. An untreated flask of Dd2-B2 parasites was maintained in parallel throughout the course of in vitro selection as a control.

SMILES: CC[C@@](C)(NC(=O)C(C)(C)NC(=O)[C@H](CC(C)C)NC(=O)[C@@H]1CCCN1C(=O)C(C)(C)NC(=O)[C@H](CC(C)C)NC(=O)CNC(=O)C(C)(C)NC(=O)[C@@H](NC(=O)C(C)(C)NC(=O)[C@H](CCC(N)=O)NC(=O)C(C)(C)NC(=O)C(C)(C)NC(=O)[C@H](C)NC(=O)CNC(=O)C(C)(C)NC(C)=O)C(C)C)C(=O)N[C@@H](CCC(N)=O)C(=O)N[C@H](CO)CC(C)C [TC HA-II, trichorzin HA II] (Ac-[Aib]GA[Aib][Aib]Q[Aib]V[Aib]GL[Aib]PL[Aib][dIva]Q[Leu(ol)])
- hemolysis at 25 μM (red blood cell (RBC); 25 μM, RBCs in PBS, 1% hematocrit, 1 h, 37°C, absorbance 550 nm, 0.01% saponin control, biological triplicate): 53%
- Hemolytic Potential (red blood cell (RBC); Figure 7A summary): +
- channel activity in planar lipid bilayers ([1]; 1 μM peptaibol, DPhPc bilayers, pH 7.0 saline): did not reveal channel activity
- Channel Induction ([1]; Figure 7A summary): -
- DV Alkylization ([2]; Figure 7A summary): ++
- localization of membrane impermeable dye FITC-dextran (DV membrane leakage) ([2]; microscopic analysis after 2 h, 5 x EC50): no longer showed full colocalization of the dye within the DV
- Liver stage inhibition ([3]; Figure 7A summary): Maturation and replication
- luciferase inhibition at 48 HPI (liver stage HCI) ([3]; tested at 5 and 0.5 μM): showed luciferase inhibition
- pfMDR1 Clone Sensitivity [4]: -
